Positions of bridges follow the written chain, without caps; N, C: chain ends. Non-standard residues stand in square brackets, D forms with d. Residues, ends and D or L forms follow the SMILES beside them. Phe(2-Cl) = N[C@@H](Cc1ccccc1Cl)C(=O)O; hPhe = N[C@@H](CCc1ccccc1)C(=O)O; Sar = CNCC(=O)O
Assays:
Assay in all cases: cell-based
[1] = molecular target: hNav1.7 (Homo sapiens, UniProt Q15858); type: cell-based; conditions: IonWorks Quattro, use-dependent protocol, hNav1.7; read-out: IWQ Use Nav1.7
[2] = molecular target: hNav1.5 (Homo sapiens, UniProt Q14524); conditions: IonWorks Quattro, use-dependent protocol, hNav1.5; read-out: IWQ Use Nav1.5
[3] = molecular target: hNav1.3 (Homo sapiens, UniProt Q9NY46); conditions: IonWorks Quattro, use-dependent protocol, hNav1.3; read-out: IWQ Use Nav1.3

hNav1.5, sequence (Q14524 whole entry, looked up): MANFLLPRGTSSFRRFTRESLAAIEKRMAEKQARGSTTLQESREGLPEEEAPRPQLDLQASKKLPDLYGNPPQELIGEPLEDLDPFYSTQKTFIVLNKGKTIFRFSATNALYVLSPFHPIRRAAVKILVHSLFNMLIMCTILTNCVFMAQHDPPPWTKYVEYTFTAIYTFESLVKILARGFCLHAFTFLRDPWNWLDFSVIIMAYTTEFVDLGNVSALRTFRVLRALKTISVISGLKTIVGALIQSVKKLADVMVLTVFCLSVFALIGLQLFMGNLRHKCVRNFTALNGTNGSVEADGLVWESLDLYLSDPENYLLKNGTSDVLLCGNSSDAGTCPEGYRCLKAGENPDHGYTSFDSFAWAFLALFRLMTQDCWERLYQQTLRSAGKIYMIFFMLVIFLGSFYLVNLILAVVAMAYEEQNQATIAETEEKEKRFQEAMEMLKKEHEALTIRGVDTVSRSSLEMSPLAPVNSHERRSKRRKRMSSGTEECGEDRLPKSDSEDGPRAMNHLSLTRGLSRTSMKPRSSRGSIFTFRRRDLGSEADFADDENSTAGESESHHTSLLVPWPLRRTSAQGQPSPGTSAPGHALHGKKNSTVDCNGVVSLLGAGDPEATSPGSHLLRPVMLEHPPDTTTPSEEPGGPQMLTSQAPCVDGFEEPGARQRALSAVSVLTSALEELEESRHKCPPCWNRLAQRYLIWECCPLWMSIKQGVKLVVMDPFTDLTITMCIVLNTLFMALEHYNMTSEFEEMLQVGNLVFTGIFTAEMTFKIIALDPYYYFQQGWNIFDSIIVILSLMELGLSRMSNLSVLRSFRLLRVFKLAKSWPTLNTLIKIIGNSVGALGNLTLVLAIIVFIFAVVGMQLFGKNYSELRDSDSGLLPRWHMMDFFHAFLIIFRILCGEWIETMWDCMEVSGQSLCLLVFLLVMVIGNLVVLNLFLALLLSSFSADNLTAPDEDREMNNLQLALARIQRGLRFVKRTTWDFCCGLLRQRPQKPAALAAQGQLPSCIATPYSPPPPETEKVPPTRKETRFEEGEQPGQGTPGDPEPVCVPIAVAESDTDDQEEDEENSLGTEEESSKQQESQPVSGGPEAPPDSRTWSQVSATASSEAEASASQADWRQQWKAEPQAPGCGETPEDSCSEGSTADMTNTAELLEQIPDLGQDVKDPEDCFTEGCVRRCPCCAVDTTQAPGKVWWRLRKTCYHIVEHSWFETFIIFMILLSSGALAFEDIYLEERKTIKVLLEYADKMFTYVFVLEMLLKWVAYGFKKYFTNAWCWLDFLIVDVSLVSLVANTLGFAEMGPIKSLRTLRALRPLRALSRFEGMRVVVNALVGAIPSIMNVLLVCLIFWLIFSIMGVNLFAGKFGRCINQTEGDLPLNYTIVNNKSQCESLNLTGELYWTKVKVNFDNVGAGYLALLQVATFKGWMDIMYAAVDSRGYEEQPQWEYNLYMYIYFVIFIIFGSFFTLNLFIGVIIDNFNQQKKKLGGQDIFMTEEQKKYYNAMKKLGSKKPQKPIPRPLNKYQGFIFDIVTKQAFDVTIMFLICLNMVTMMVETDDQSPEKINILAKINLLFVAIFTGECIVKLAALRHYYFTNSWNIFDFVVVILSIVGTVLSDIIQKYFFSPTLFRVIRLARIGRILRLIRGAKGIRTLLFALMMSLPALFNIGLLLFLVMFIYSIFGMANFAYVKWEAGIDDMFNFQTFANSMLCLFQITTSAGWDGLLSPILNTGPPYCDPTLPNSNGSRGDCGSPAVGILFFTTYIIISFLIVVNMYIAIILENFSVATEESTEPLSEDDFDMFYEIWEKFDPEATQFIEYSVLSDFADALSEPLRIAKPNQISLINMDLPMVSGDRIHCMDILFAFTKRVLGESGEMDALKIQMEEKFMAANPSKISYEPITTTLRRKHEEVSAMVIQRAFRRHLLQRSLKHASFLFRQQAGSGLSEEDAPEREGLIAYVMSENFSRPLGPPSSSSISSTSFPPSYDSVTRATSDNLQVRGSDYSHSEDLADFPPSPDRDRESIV
hNav1.7, sequence (Q15858 whole entry, looked up): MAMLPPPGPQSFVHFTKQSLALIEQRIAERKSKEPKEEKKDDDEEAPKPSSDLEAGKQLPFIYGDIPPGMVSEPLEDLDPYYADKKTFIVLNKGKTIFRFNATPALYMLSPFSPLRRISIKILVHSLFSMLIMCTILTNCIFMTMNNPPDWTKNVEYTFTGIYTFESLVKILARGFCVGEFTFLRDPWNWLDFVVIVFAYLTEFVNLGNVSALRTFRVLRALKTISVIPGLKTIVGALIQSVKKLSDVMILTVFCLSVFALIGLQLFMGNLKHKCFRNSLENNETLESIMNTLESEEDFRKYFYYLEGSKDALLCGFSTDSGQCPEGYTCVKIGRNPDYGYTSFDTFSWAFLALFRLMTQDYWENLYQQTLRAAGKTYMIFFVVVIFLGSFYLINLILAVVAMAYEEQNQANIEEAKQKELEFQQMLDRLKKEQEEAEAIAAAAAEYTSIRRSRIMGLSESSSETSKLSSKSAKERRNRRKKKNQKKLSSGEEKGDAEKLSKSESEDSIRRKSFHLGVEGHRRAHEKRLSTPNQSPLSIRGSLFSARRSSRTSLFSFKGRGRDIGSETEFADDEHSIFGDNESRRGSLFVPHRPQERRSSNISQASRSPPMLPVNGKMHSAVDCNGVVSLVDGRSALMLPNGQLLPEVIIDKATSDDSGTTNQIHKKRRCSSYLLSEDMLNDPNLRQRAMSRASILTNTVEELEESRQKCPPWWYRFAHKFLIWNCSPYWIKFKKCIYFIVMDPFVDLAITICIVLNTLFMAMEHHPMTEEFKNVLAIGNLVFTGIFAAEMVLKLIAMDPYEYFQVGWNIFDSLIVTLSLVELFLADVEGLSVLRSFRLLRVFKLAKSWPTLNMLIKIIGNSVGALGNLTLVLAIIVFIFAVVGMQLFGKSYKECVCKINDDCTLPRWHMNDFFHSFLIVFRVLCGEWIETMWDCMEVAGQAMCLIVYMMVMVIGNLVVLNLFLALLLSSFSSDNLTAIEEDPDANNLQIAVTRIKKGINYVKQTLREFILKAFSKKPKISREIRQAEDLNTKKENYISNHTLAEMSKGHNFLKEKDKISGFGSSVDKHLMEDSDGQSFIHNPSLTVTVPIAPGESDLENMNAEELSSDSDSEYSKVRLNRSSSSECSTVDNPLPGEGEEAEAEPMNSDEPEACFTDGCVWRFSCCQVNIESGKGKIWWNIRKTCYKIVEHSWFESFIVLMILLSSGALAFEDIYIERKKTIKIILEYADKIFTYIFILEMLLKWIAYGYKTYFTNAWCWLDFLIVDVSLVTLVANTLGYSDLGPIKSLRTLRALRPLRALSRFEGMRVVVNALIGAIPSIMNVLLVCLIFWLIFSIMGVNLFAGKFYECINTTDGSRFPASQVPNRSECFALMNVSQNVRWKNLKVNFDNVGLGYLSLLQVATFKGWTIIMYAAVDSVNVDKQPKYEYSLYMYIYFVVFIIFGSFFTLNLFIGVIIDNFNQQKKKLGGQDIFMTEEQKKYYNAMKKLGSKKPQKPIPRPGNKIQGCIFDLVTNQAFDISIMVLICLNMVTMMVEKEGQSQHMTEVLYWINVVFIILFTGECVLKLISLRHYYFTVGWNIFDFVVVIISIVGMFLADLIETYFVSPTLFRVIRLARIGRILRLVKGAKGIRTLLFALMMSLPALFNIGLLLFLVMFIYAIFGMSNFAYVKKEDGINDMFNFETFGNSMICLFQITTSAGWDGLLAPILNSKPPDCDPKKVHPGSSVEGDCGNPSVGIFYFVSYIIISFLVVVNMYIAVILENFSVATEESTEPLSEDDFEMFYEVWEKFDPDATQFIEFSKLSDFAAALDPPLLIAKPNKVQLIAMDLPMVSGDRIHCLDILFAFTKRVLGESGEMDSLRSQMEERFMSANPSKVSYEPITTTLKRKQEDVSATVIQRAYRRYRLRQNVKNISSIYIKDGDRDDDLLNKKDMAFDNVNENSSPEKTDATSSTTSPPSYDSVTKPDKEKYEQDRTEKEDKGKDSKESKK

SMILES	IC50 [1] [nM]	IC50 [2] [nM]	IC50 [3] [nM]
CC[C@H](C)[C@@H]1NC(=O)[C@@H]2CSSC[C@@H]3NC(=O)[C@H](C(C)C)NC(=O)[C@H](CC(C)C)NC(=O)[C@H](CC(N)=O)NC(=O)[C@@H]4CCCN4C(=O)[C@H](CCCNC(=N)N)NC(=O)[C@H](CSSC[C@H](NC(=O)[C@@H](N)CC(=O)O)C(=O)N[C@@H](CC(C)C)C(=O)NCC(=O)N[C@@H](Cc4ccccc4Cl)C(=O)N[C@@H](Cc4ccccc4)C(=O)N[C@@H](CCCNC(=N)N)C(=O)N[C@@H](CCCCN)C(=O)N2)NC(=O)[C@H](CSSC[C@@H](C(=O)N[C@@H](CCCCN)C(=O)N[C@@H](Cc2ccc(O)cc2)C(=O)N[C@H](C(=O)N[C@@H](Cc2ccccc2)C(N)=O)C(C)C)NC(=O)[C@H](Cc2c[nH]c4ccccc24)NC(=O)[C@H](CCCCN)NC(=O)[C@H](Cc2c[nH]cn2)NC(=O)[C@H]([C@@H](C)O)NC(=O)[C@H](CCCNC(=N)N)NC(=O)[C@H](CO)NC3=O)NC(=O)[C@H](CCCCN)NC(=O)[C@H](CC(=O)O)NC(=O)[C@H](CC(N)=O)NC(=O)[C@H](CC(=O)O)NC(=O)[C@@H]2CCCN2C1=O [compound 630] (H-DCLG[Phe(2-Cl)]FRKCIPDNDKCCRPNLVCSRTHKWCKYVF-NH2; disulfide 2-17, 9-23, 16-30)	60	5800	9
CC[C@H](C)[C@@H]1NC(=O)[C@@H]2CSSC[C@@H]3NC(=O)[C@H](C(C)C)NC(=O)[C@H](CC(C)C)NC(=O)[C@H](CC(N)=O)NC(=O)[C@@H]4CCCN4C(=O)[C@H](CCCNC(=N)N)NC(=O)[C@H](CSSC[C@H](NC(=O)[C@@H](N)CC(=O)O)C(=O)N[C@@H](CC(C)C)C(=O)NCC(=O)N[C@@H](CCc4ccccc4)C(=O)N[C@@H](Cc4ccccc4)C(=O)N[C@@H](CCCNC(=N)N)C(=O)N[C@@H](CCCCN)C(=O)N2)NC(=O)[C@H](CSSC[C@@H](C(=O)N[C@@H](CCCCN)C(=O)N[C@@H](Cc2ccc(O)cc2)C(=O)N[C@H](C(=O)N[C@@H](Cc2ccccc2)C(N)=O)C(C)C)NC(=O)[C@H](Cc2c[nH]c4ccccc24)NC(=O)[C@H](CCCCN)NC(=O)[C@H](Cc2c[nH]cn2)NC(=O)[C@H]([C@@H](C)O)NC(=O)[C@H](CCCNC(=N)N)NC(=O)[C@H](CO)NC3=O)NC(=O)[C@H](CCCCN)NC(=O)[C@H](CC(=O)O)NC(=O)[C@H](CC(N)=O)NC(=O)[C@H](CC(=O)O)NC(=O)[C@@H]2CCCN2C1=O [compound 631] (H-DCLG[hPhe]FRKCIPDNDKCCRPNLVCSRTHKWCKYVF-NH2; disulfide 2-17, 9-23, 16-30)	19	4900	5
CC[C@H](C)[C@@H]1NC(=O)[C@@H]2CSSC[C@@H]3NC(=O)[C@H](C(C)C)NC(=O)[C@H](CC(C)C)NC(=O)[C@H](CC(N)=O)NC(=O)[C@@H]4CCCN4C(=O)[C@H](CCCNC(=N)N)NC(=O)[C@H](CSSC[C@H](NC(=O)[C@@H](N)CC(=O)O)C(=O)N[C@@H](CC(C)C)C(=O)NCC(=O)N(C)CC(=O)N[C@@H](Cc4ccccc4)C(=O)N[C@@H](CCCNC(=N)N)C(=O)N[C@@H](CCCCN)C(=O)N2)NC(=O)[C@H](CSSC[C@@H](C(=O)N[C@@H](CCCCN)C(=O)N[C@@H](Cc2ccc(O)cc2)C(=O)N[C@H](C(=O)N[C@@H](Cc2ccccc2)C(N)=O)C(C)C)NC(=O)[C@H](Cc2c[nH]c4ccccc24)NC(=O)[C@H](CCCCN)NC(=O)[C@H](Cc2c[nH]cn2)NC(=O)[C@H]([C@@H](C)O)NC(=O)[C@H](CCCNC(=N)N)NC(=O)[C@H](CO)NC3=O)NC(=O)[C@H](CCCCN)NC(=O)[C@H](CC(=O)O)NC(=O)[C@H](CC(N)=O)NC(=O)[C@H](CC(=O)O)NC(=O)[C@@H]2CCCN2C1=O [compound 632] (H-DCLG[Sar]FRKCIPDNDKCCRPNLVCSRTHKWCKYVF-NH2; disulfide 2-17, 9-23, 16-30)	680	10500	450
